Data: patent US5189034A, “Benzoxazinone and benzothiazinone derivatives endowed with cardiovascular activity” (Italfarmaco S.P.A., priority 1990, dated 1993)

Key:
[1] = B. W. Horrom et al., J. Org. Chem., 72, 721 (1950); cited from earlier work
[2] = tested on: rabbit aorta strip contracted with noradrenaline; assay: rabbit aorta strip contracted with noradrenaline (in vitro vasorelaxing activity); type: cell-based; conditions: Oryctolagus cuniculus, concentration causing 50% inhibition of the contraction of the rabbit aorta strip, read-out: Vasodilative activity in vitro IC50
Experimental: The in vitro vasorelaxing activity was determined by the test of the rabbit aorta strip contracted with noradrenaline. The test was carried out according to the method described by K. Murakami et al., Eur. J. Pharmacol., 141, 195 (1987).
The IC50 values i.e., the concentrations of active substances, causing a 50% inhibition of the contraction of the rabbit strip, were determined.

[3] = tested on: Arg-vasopressin induced coronaric spasm in anesthetized Sprague Dawley rats; assay: antianginal activity in vivo, Arg-vasopressin-induced coronaric spasm (increase of the T-wave); conditions: for % Inhibition of the increase of the T-wave versus the controls: 3 mg/Kg per os, Arg-vasopressin i.v.; for ED50: Rattus norvegicus, iv, 4 increasing doses, Arg-vasopressin, read-out: ED50 (i.v.), dose yielding the 50% inhibition of the increase of the T-wave
Experimental: The antianginal activity in vivo was determined on anesthetized Sprague Dawley rats of weight 350-400 g, operating according to the method of M. Leitold et al., Arzeim. Forsch., 36, 1454, (1986). The test was carried out by intravenously administering the animals with one I.U/Kg, equivalent to […] of Arg-vasopressin, thus inducing a coronaric spasm that is reproducible and may be electrocardiographically monitored by an increase of the T-wave. The compounds of the invention were administered by gastric gavage at a dose of 3 mg/Kg one […] before the administration of Arg-vasopressin. The antianginal effect was expressed as the percentage inhibition of the increase of the T-wave versus the controls. Another group of animals were intravenously administered with 4 increasing doses of the compound of the invention to measure their ED50, i.e. the dose yielding the 50% inhibition of the increase of the T-wave.

IC50 [2] | Structure (SMILES) | analgesic activity [1] | % Inhibition of the increase of the T-wave versus the controls [3] | ED50 [3]
 | O=C1NC(c2ccccc2)Oc2ccccc21 (stereo not shown) [2,3-dihydro-2-phenyl-4H-1,3-benzoxazin-4-one] | endowed with analgesic activity |  | 
94 nM | O=C1c2ccccc2OCN1CCO[N+](=O)[O-] [Example 1, 2,3-Dihydro-3-(2'-nitrooxyethyl)-4H-1,3-benzoxazin-4-one] |  | 55% | 0.0013 mg/kg
5.4 nM | Cc1ccc2c(c1)C(=O)N(CCO[N+](=O)[O-])CO2 [Example 2, 2,3-Dihydro-6-methyl-3-(2'-nitrooxyethyl)-4H-1,3-benzoxazin-4-one] |  |  | 0.0063 mg/kg
6.3 nM | O=C1c2ccc(Cl)cc2OCN1CCO[N+](=O)[O-] [Example 3, 7-Chloro-2,3-dihydro-3-(2'-nitrooxyethyl)-4H-1,3-benzoxazin-4-one] |  | 31% | 0.011 mg/kg
75 nM | Cc1ccc2c(c1)OCN(CCO[N+](=O)[O-])C2=O [Example 4, 2,3-Dihydro-7-methyl-3-(2'-nitrooxyethyl)-4H-1,3-benzoxazin-4-one] |  | 31% | 0.012 mg/kg
19 nM | O=C1c2ccccc2OCN1CCCCCO[N+](=O)[O-] [Example 8, 2,3-Dihydro-3-(5'-nitrooxypentyl)-4H-1,3-benzoxazin-4-one] |  |  | 0.058 mg/kg
14 nM | COc1ccc2c(c1)OCN(CCO[N+](=O)[O-])C2=O [Example 9, 2,3-Dihydro-7-methoxy-3-(2'-nitrooxyethyl)-4H-1,3-benzoxazin-4-one] |  |  | 
17 nM | O=C1c2ccccc2SCN1CCO[N+](=O)[O-] [Example 10, 3(2'-nitrooxyethyl)-2,3-dihydro-4H-1,3-benzothiazin-4-one] |  |  | 
